# Data published in patent US20050172344A1, “Cell cultures from animal models of Alzheimer's disease for screening and testing drug efficacy” (priority 2002, published 2005).
# Key:
# Assay type in all cases: cell-based, mouse
# [1] = system: cultured murine hippocampal neurons; experiment: evoked EPSCs and tetanus-induced potentiation in cultured neurons; conditions: for effect on EPSC amplitude (in words): evoked EPSCs, FIG. 2B
# [2] = system: cultured hippocampal neurons from WT mice; experiment: basal mEPSC frequency (spontaneous neurotransmitter release), whole cell patch clamp, WT cultures
# [3] = system: cultured hippocampal neurons from double transgenic mAPP/mPS1 mice; experiment: glutamate-induced enhancement of mEPSC frequency (synaptic plasticity), mAPP/mPS1 cultures
# [4] = system: cultured hippocampal neurons from double transgenic mAPP/mPS1 mice; experiment: basal mEPSC frequency (spontaneous neurotransmitter release), whole cell patch clamp, mAPP/mPS1 cultures
# [5] = system: cultured hippocampal neurons from WT mice; experiment: glutamate-induced increase of mEPSC frequency, WT cultures
# [6] = system: cultured hippocampal neurons from WT mice; experiment: FM 1-43 vesicle cycling: number of active presynaptic boutons, WT cultures
# From the text: Cationic styrylpyridinium dye FM 1-43 has become an established tool for identifying actively firing neurons and for investigating the mechanisms of activity-dependent vesicle cycling in widely different species. These water soluble dyes, which are non-toxic to cells virtually nonfluorescent in aqueous medium, become internalized within recycled synaptic vesicles and the nerve terminals become brightly stained. The amount of FM 1-43 taken up per vesicle by endocytosis equals the amount of dye released upon exocytosis.
# One of the methods to induce exocytosis/endocytosis in the neuronal culture is by perfusion of the hyperkalemic solution. […] The perfusion solution is then changed back to normal bath solution for 10 minutes to wash off the dye from the external medium. ADVASEP-7 (1 mM, CyDex, Inc., Overland Park, Kans.), an anionic cyclodextrin complexing agent is introduced for 60 seconds in the washing bath solution at 1 and 6 minutes of washing for enhanced removal of the dye from the external medium (FIG. 6A). After 10 min wash period, which is sufficient for the complete recycling and repriming of the dye-stained population of synaptic vesicles, an image was then taken to record the loading of FM 1-43 in the synaptic boutons. The culture is then exposed to multiple 15 seconds application of hyperkalemic bath solution (without FM 1-43) to evoke repeated cycles of exocytosis, which facilitate release of the dye from the vesicles. An image is taken after 30 minutes of repeated cycles of exocytosis and washing with normal bath solution. The difference between the images before and after multiple exposures to hyperkalemic solution gives the measure of FM 1-43 stained vesicles.
# To study glutamate-induced presynaptic plasticity changes, the culture is exposed to glutamate (200 μM) in Mg^2+ free bath solution for 30 seconds and then washed out in approximately 1 minute. After 30 minutes of glutamate exposure, the staining and destaining procedure is repeated. NMDA receptor antagonist, d-AP5 (40 μM) and non-NMDA receptor antagonist, CNQX (20 μM) are included in the hyperkalemic solution to block possible recurrent excitation and induction of activity-dependent plasticity. All images were acquired using Nikon D-Eclipse C1 confocal microscope. Cultures were viewed with 60×/1.2 nA water immersion objective. An investigator blinded to experimental conditions obtained quantitative data using NIH Image (v. 1.61). For each image, the intensity of individual puncta and total number of puncta was assessed. FIG. 6B illustrates exemplary cycling vesicles before and after glutamate exposure in cell cultures from wild type (WT) and mAPP/mPS1 littermates. A brief application of glutamate produces enhancement of cycling vesicles in WT but not mAPP/mPS1 cell cultures (FIG. 6C).
# Another finding on cell cultures from transgenic mouse models of Alzheimer's disease is represented by the increase in basal number of functional presynaptic release sites as well as the lack of the glutamate-induced increase in number of functional presynaptic release sites. These tests were performed using FM 1-43. Therefore, we also tested whether these phenomena occurred in non transgenic cultures following exposure to exogenous oligomeric Aβ. […] Brief application (˜30 sec) of 200 μM glutamate in Mg^2+ free medium caused a significant increase in number of active boutons in cultures from vehicle-treated WT animals (269.70±33.12%, n=6, p<0.001, one way ANOVA) ) (FIG. 12B). […]
# [7] = system: cultured hippocampal neurons from WT mice; experiment: immunocytochemistry: synapsin I- and synaptophysin-immunoreactive puncta, WT cultures
# Procedure: Glutamate in Mg^2+-free bath solution, or normal bath solution (control) was added directly to the culture dish and washed out after approximately 1 min by exchanging the solution with phosphate-buffered saline (PBS), (pH 7.4) 2 times. The cultures were fixed starting approximately 30 min after the application of glutamate, or control solution. The cultures were incubated overnight with affinity-purified rabbit anti-synapsin I (Molecular Probes) diluted 1:200. The secondary antibody was goat anti-rabbit labeled with Rhodamin Red diluted 1:500 in 4% goat serum in PBS. Cells were mounted in Vectashield (Vector Labs) and examined by confocal microscope (Nikon D-Eclipse C1). The cells were excited using the 568 nm lines of a krypton-argon laser to image Cy3. Kalman averages of 4 scans were collected for each image. Ten neurons in each culture dish were selected at random and analyzed by an observer who was blind to the experimental treatment. Fields with roughly equal densities of neurites were chosen for analysis. Synapsin I clusters in a representative field (94×142 μm) around the neuron were quantified using a computer program NIH Image (v. 1.61). Individual clusters were identified based on having a fluorescence intensity that exceeded a threshold set above background and a diameter between 0.5 and 5 μm. For all measures, the mean result from the 10 neurons in the dish was normalized to the mean from control dishes in the same culture batch because variability between different culture batches was greater than between dishes in the same batch. FIG. 7 illustrates the effects of glutamate on the number of synapsin I-immunoreactive clusters in WT and mAPP/mPS1 cell cultures. Synapsin I-immunoreactive clusters are more numerous in glutamate-exposed than control cell WT cultures (FIGS. 7A, 7B).
# In light of the microstructural changes involving synapsin I and synaptophysin in cultures from transgenic animals, we also tested whether these changes could be induced by the exogenous application of Aβ. […] We next tested whether the number of synapsin I- and synaptophysin-immunoreactive puncta was increased after glutamate application in Aβ-treated cultures. […] These findings indicate that Aβ can produce coordinate changes in the distribution and/or expression of presynaptic proteins.
# Aβ preparation: Oligomeric Aβ42 was prepared as previously described (Stine et al., 2003). Briefly, the lyophilized peptide (American Peptide) was re-suspended in 100% 1,1,1,3,3,3-hexafluoro-2-propanol (HFIP; Sigma). The solution was aliquoted and the HFIP was allowed to evaporate in the fume hood. The resulting clear peptide films were dried under vacuum in a SpeedVac and stored at −20° C. Twenty-four hours prior to use, the aliquots were added dimethylsulfoxide (DMSO) (Sigma) and sonicated for 10 minutes. Oligomeric Aβ42 was obtained by diluting Aβ42-DMSO into cell culture media, vortexed for 30 seconds and incubated at 4° C. for 24 hours until the use. To induce plasticity 200 μM glutamate in a Mg^2+-free solution was added for ˜30 sec.
# [8] = Aβ42-treated cultures fixed 30 minutes after 200 μM glutamate application
# [9] = WT cultures, 200 pM oligomeric Aβ42 for 24 hours vs vehicle-treated
compound,measurement,setting,value
N[C@@H](CCCP(=O)(O)O)C(=O)O [APV],effect on potentiation of EPSC by high frequency stimulation (in words),"[1]; 100 Hz tetani, extracellular application, FIG. 2C",blocked
same,effect on EPSC amplitude (in words),[1],reduces the amplitude of the EPSCs
N#Cc1cc2[nH]c(=O)c(=O)[nH]c2cc1[N+](=O)[O-] [CNQX],effect on EPSC amplitude (in words),[1],blocks the remaining part of the EPSC
CC(C)C[C@H](NC(=O)[C@H]1O[C@@H]1C(=O)O)C(=O)NCCCCN=C(N)N [E64],basal mEPSC frequency,[2]; WT cultures treated with E64 1 μM added daily,332 events/minute
same,mEPSC frequency after glutamate (synaptic plasticity),"[3]; mAPP/mPS1 cultures treated with E64, 45 minutes after application of glutamate, n=6",346.44±41%
same,effect on synaptic plasticity (in words),"[3]; mAPP/mPS1 cultures, glutamate-induced mEPSC enhancement, FIG. 5",re-established normal synaptic plasticity
same,basal mEPSC frequency,[4]; mAPP/mPS1 cultures treated with E64 1 μM added daily to culture medium,435 events/minute
same,effect on basal mEPSC frequency (in words),"[4]; mAPP/mPS1 cultures, E64 for 3 to 4 days, FIG. 4",re-established normal mEPSC frequency
"oligomeric Aβ42: lyophilized β-amyloid 42 peptide (American Peptide) treated with HFIP and DMSO, then diluted into culture media to form oligomers",effect on basal frequency of spontaneous release of neurotransmitter (in words),[2]; FIG. 11A,increases
same,mEPSC amplitude vs vehicle-treated cultures (in words),"[2]; WT cultures, 200 pM oligomeric Aβ42 for 24 hours",did not find any difference
same,basal frequency of spontaneous release of neurotransmitter,"[2]; WT cultures, 200 pM oligomeric Aβ42 for 24 hours, n=8",671.46 ± 48.28 min⁻¹
same,effect on glutamate-induced mEPSC frequency increase (in words),[5]; FIG. 11B,blocks
same,mEPSC frequency after glutamate,"[5]; WT cultures, 200 pM Aβ42 for 24 hours, 45 min after 200 μM glutamate, n=10",104.43±3.05 % of pre values
same,basal mEPSC frequency with vehicle added instead of glutamate,"[5]; WT cultures, Aβ-treated, vehicle instead of glutamate, n=8",112.00±11.34 % of pre values
same,mEPSC amplitude after glutamate treatment (in words),[5]; cultures treated with Aβ,did not produce any change
same,mean fluorescence intensity of the labeled boutons (in words),[6]; Aβ-treated cultures,did not find any change
same,number of active boutons after glutamate,"[6]; Aβ-treated cultures, ~30 sec 200 μM glutamate in Mg2+ free medium, n=8",86.80±4.6 % increase
same,effect on basal number of active presynaptic boutons (in words),[6]; FIG. 12A,increases
same,effect on glutamate-induced increase in the number of active boutons (in words),[6]; FIG. 12B,blocks
same,basal number of active boutons,"[6]; WT cultures treated for 24 hrs with Aβ42, n=15",38.15±3.6 boutons/unit length of neurite
same,number of synapsin I-immunoreactive puncta after glutamate,[7]; [8],111.55±8.97%
same,number of synaptophysin-immunoreactive puncta after glutamate,[7]; [8],115.48±5.76%
same,effect on basal number of synapsin I- and synaptophysin-immunoreactive puncta (in words),[7]; FIG. 13A,increases
same,effect on glutamate-induced increase in synapsin I- and synaptophysin-immunoreactive puncta (in words),[7]; FIG. 13B,blocks
same,basal number of synapsin I immunoreactive puncta,[7]; [9],1155.53±6.78 % of control
same,basal number of synaptophysin immunoreactive puncta,[7]; [9],146.13±6.15%
